These are literature values, as cited in patent US20150030676A1, “STABLIZED MODIFIED RELEASE FOLIC ACID DERIVATIVE COMPOSITION, ITS THERAPEUTIC USE AND METHODS OF MANUFACTURE” (APTALIS PHARMATECH, INC., priority 2013, published 2015).

The conditions of the series: in vivo.

On to “6(S)-5-methyltetrahydrofolate [L-methylfolate]”, for which the “plasma elimination half life” value is recorded as “about 3 hours”.
